{"source": "patent US8563067B2", "about": "“Extended shelf life and bulk transport of perishable organic liquids with low pressure carbon dioxide” (Cornell Research Foundation, Inc., priority 2004, dated 2013)", "key": {"Lactobacillus spp.": {"tested_on": "Lactobacillus spp.", "settings": "30 and 45 ppm CO2 (Espie and Madden, 1997); cited from earlier work"}, "[1]": {"assay": "pH of raw milk after CO2 pressure treatment (Example 1)", "format": "physicochemical", "settings": "for pH after treatment (6.6 before treatment): 6.1° C., 4 days; for pH of milk samples: 10° C.", "experimental": "The pH of the treated and control milk samples (as measured at atmospheric pressure) was 6.6 to 5.9 at CO2 pressures≦516 kPa and 5.7 when treated at pressures≧516 kPa and 20° C. The pH of the treated and control milk samples, when treated at 10° C., was 5.5 at CO2 pressures≦516 kPa and 5.8 when treated at pressures≧516 kPa."}, "[2]": {"tested_on": "aerobic bacteria (SPC) in raw milk", "assay": "Standard Plate Count (SPC) of raw milk held under CO2 pressure, laboratory scale (Example 1)", "format": "cell-based", "settings": "for SPC increase / SPC reduction from initial SPC: 20° C.; for SPC reduction versus control: 1378 kPa", "excerpt": "The apparatus for pressurizing and holding raw milk samples is shown in schematic form in FIG. 9 and consisted of two 13-ml stainless steel 1.27-cm OD cylindrical vessels 60, 61; one vessel 60 was pressurized while the other served as a control 61. Compressed and filtered CO2 from a high-pressure tank 62 was used (Empire Airgas, Inc, Elmira, N.Y.). The system consisted of pressure regulator 63, a fine metering valve 64 (NUPRO Company, Willoughby, Ohio), an on-off valve 65 (Circle Seal, Anaheim, Calif.) and a check valve 66 (NUPRO Company, Willoughby, Ohio). The fine metering valve controlled gas flow such that the time to reach desired pressure was less than five seconds. The gas entered the vertically positioned treatment vessel 60 from the bottom and was thus bubbled through the milk until the set pressure was reached. A check valve 66 was placed immediately before the inlet to the pressure vessel to prevent the backward flow of the fluid milk into the gas inlet line. The outlet of the vessels consisted of a pressure gauge 67 and a high-pressure release valve 68 (High Pressure Equipment, Erie, Pa.). The release valve 68 was kept tightly closed during treatment. The control vessel 61 was closed off from both ends but not connected to the carbon dioxide line inlet and outlet lines.\n(§1) Milk samples were mixed and 5 ml of milk added into the treatment and control vessels. The treatment vessel was connected to the apparatus and the control vessel closed off. Both vessels were placed in the water bath. When the desired temperatures were attained in both treatment and control vessels, CO2 was introduced through the bottom of the treatment vessel until the set pressure was reached. The CO2 pressure was maintained throughout the test period. When the desired time was reached, the CO2 inlet was turned off, the pressure release valve on the outlet line opened, and the pressure released in under one minute. After depressurization, the treatment and control vessels were removed from the water bath and their external surfaces were wiped dry, sanitized with 95% ethanol, detached from the apparatus and transferred into sterile containers for dilution and plating.\nShort (<1 h) and longer term (1, 4 and 9 day) experiments were conducted. Raw milk (Northeast Dairy Herd Improvement Association, Inc.; Ithaca, N.Y.) in 5 ml aliquots was treated at each of the following combinations of CO2 pressure, temperature, and time (kPa/° C./min): 1378/5/15, 2757/5/5, 3446/5/5. In longer term studies, raw milk from the T&R Center was first stored at 6° C./48 h so that the SPC were at detectable levels at treatment initiation. […]\nRaw milk from the T&R Center was monitored for changes in aerobic bacteria, gram-negative bacteria and total Lactobacillus spp. as follows: CO2 pressures of 0 (control), 68, 172, 344, 516 and 689 kPa, at 6.1° C. for 4-days. SPC, gram-negative bacteria and total Lactobacillus spp. were enumerated before (day 0) and after (day 4) treatment. Gram negative bacteria were enumerated on MacConkey Agar (Difco Manual, Becton Dickinson & Co., Sparks, Md.), a selective and differential media which can be used to discriminate between lactose fermenting and non-lactose fermenting gram-negative bacteria. Use of this media allows a one-step method of obtaining estimates of both coliform and non-coliform gram negative bacteria. Coliform bacteria may include species of Escherichia, Klebsiella and Enterobacter, potential pathogens and/or spoilage organisms. Non-coliform gram negative bacteria may include spoilage organisms such as pseudomonads or potential pathogens such as Salmonella spp. or Shigella spp. Numbers of Lactobacillus spp. populations were estimated using acidified (adjusted to pH 5.5 with glacial acetic acid) Lactobacillus MRS agar (Difco Manual, Becton Dickinson & Co., Sparks, Md.) after incubation under anaerobic conditions; suspect colonies were confirmed by gram stain. […]"}, "coliforms": {"tested_on": "coliforms", "assay": "Total coliforms (Petrifilm) in raw milk under CO2 pressure (Example 1)", "format": "cell-based", "settings": "689 kPa CO2 pressure, 4° C.", "experimental": "as §1\nThe progression of these counts (total, Coliform/E. coli and thermoduric bacteria) in the treatment and control samples was tracked by conducting checks on the total aerobic counts (SPC) on treatment days 4 and 6. Based on the levels of total counts on days 4 and 6, analyses of total coli forms/E. coli and thermoduric bacteria after day 6 were conducted either in 1-day or 2-day intervals. The control sample final count was measured on days 4 and 6.\nInitial total, coliform, and thermoduric counts were each determined for control and treated samples. Thermoduric organisms were enumerated by the laboratory pasteurization count (LPC) method described in the Standard Methods for the Examination of Dairy Products (Houghtby et al., 1992). The 3M Petri film count plate (3M Microbiology Products, St. Paul, Minn.) was used to enumerate total coli forms and Escherichia coli in the raw, treated and control milk samples."}}}
{"smiles": "O=C=O", "note": "[CO2, carbon dioxide]", "values": [{"measurement": "effect on the growth of Lactobacillus spp.", "setting": "Lactobacillus spp.", "value": "no effect"}, {"measurement": "pH after treatment (6.6 before treatment)", "setting": "[1]; 68 kPa", "value": 5.9}, {"measurement": "pH after treatment (6.6 before treatment)", "setting": "[1]; 344 kPa", "value": 5.8}, {"measurement": "pH after treatment (6.6 before treatment)", "setting": "[1]; 516 kPa", "value": 5.5}, {"measurement": "pH of treated milk (initial value 6.6)", "setting": "[1]; 689 kPa, 4° C., end of days 4, 6, 8 and 9", "value": 5.5}, {"measurement": "pH of milk samples", "setting": "[1]; CO2 pressures ≦516 kPa", "value": 5.5}, {"measurement": "pH of milk samples", "setting": "[1]; pressures ≧516 kPa", "value": 5.8}, {"measurement": "pH of milk samples (measured at atmospheric pressure)", "setting": "[1]; pressures ≧516 kPa, 20° C.", "value": 5.7}, {"measurement": "microbial growth compared to control milks", "setting": "[2]; 68, 172, 344, 516 and 689 kPa, 6.1° C., 4 days", "value": "significantly reduced microbial growth"}, {"measurement": "SPC increase from initial SPC", "setting": "[2]; 68 kPa, 6.1° C., 4 days", "value": 1.28, "unit": "log10 cfu/ml"}, {"measurement": "SPC increase", "setting": "[2]; 68 kPa, 24 h", "value": 1.07, "unit": "log10 cfu/ml"}, {"measurement": "SPC increase from initial SPC", "setting": "[2]; 172 kPa, 6.1° C., 4 days", "value": 1.10, "unit": "log10 cfu/ml"}, {"measurement": "SPC increase", "setting": "[2]; 172 kPa, 24 h", "value": 0.59, "unit": "log10 cfu/ml"}, {"measurement": "decrease in counts (SPC)", "setting": "[2]; 344 kPa CO2, 24 h, 10° C.", "value": 0.31, "unit": "log10 cfu/ml"}, {"measurement": "SPC increase from initial SPC", "setting": "[2]; 344 kPa, 6.1° C., 4 days", "value": 0.94, "unit": "log10 cfu/ml"}, {"measurement": "SPC reduction from initial SPC", "setting": "[2]; 344 kPa, 24 h", "value": 0.39, "unit": "log10"}, {"measurement": "decrease in counts (SPC)", "setting": "[2]; 516 kPa CO2, 24 h, 10° C.", "value": 0.56, "unit": "log10 cfu/ml"}, {"measurement": "SPC of treated samples versus initial untreated samples", "setting": "[2]; 516 kPa CO2 pressure, 6.1° C., 4 days", "value": "not significantly different"}, {"measurement": "SPC increase from initial SPC", "setting": "[2]; 516 kPa, 6.1° C., 4 days", "value": 0.82, "unit": "log10 cfu/ml"}, {"measurement": "SPC reduction from initial SPC", "setting": "[2]; 516 kPa, 24 h", "value": 0.62, "unit": "log10"}, {"measurement": "time for treated milk to reach SPC of 10^5 cfu/ml", "setting": "[2]; 689 kPa CO2, 4° C.", "value": 8, "unit": "days"}, {"measurement": "decrease in counts (SPC)", "setting": "[2]; 689 kPa CO2, 24 h, 10° C.", "value": 0.71, "unit": "log10 cfu/ml"}, {"measurement": "SPC counts, Treated, 4 Days", "setting": "[2]; 689 kPa CO2 pressure, 4° C., 4 days, raw milk", "value": "7.8 * 10^2b cfu/ml"}, {"measurement": "SPC counts, Treated, 6 Days", "setting": "[2]; 689 kPa CO2 pressure, 4° C., 6 days, raw milk", "value": "4.4 * 10^4c cfu/ml"}, {"measurement": "SPC counts, Treated, 8 Days", "setting": "[2]; 689 kPa CO2 pressure, 4° C., 8 days, raw milk", "value": "9.7 * 10^4d cfu/ml"}, {"measurement": "SPC counts, Treated, 9 Days", "setting": "[2]; 689 kPa CO2 pressure, 4° C., 9 days, raw milk", "value": "2.4 * 10^5e cfu/ml"}, {"measurement": "extension of treatment holding time compared to control", "setting": "[2]; 689 kPa, 4° C.", "value": "at least four days"}, {"measurement": "treated milk SPC", "setting": "[2]; 689 kPa, 4° C., 6 days", "value": 4.64, "unit": "log10 cfu/ml"}, {"measurement": "treated milk SPC", "setting": "[2]; 689 kPa, 4° C., 8 days", "value": 4.99, "unit": "log10 cfu/ml"}, {"measurement": "treated milk SPC", "setting": "[2]; 689 kPa, 4° C., 9 days", "value": 5.37, "unit": "log10 cfu/ml"}, {"measurement": "treated milk SPC", "setting": "[2]; 689 kPa, 4° C., four days (from 3.48)", "value": 2.89, "unit": "log10 cfu/ml"}, {"measurement": "SPC lower than initial counts", "setting": "[2]; 689 kPa, 6.1° C., 4 days", "value": 0.89, "unit": "log10 cfu/ml"}, {"measurement": "SPC lower than the controls", "setting": "[2]; 689 kPa, 6.1° C., 4 days", "value": 3.48, "unit": "log10 cfu/ml"}, {"measurement": "difference in SPC between control and test milks", "setting": "[2]; 689 kPa, 24 h, 10° C.", "value": 2.68, "unit": "log10 cfu/ml"}, {"measurement": "SPC reduction from initial SPC", "setting": "[2]; 689 kPa, 24 h", "value": 0.82, "unit": "log10"}, {"measurement": "SPC reduction versus control", "setting": "[2]; 15 min", "value": 0.33, "unit": "log10"}, {"measurement": "SPC reduction versus control", "setting": "[2]; 30 min", "value": 0.39, "unit": "log10"}, {"measurement": "SPC of raw milk compared to untreated controls", "setting": "[2]; all time-pressure combinations, even 68 kPa and 20° C.", "value": "significantly reduced"}, {"measurement": "Coliforms counts, Treated, 4 Days", "setting": "coliforms; 4 days", "value": "1.0 * 10^2h cfu/ml"}, {"measurement": "Coliforms counts, Treated, 6 Days", "setting": "coliforms; 6 days", "value": "1.0 * 10^2h cfu/ml"}, {"measurement": "Coliforms counts, Treated, 8 Days", "setting": "coliforms; 8 days", "value": "9.3 * 10^1h cfu/ml"}, {"measurement": "Coliforms counts, Treated, 9 Days", "setting": "coliforms; 9 days", "value": "9.0 * 10^1h cfu/ml"}]}
